The subject of data set [1] is green fluorescent protein (GFP). The data set can be described thus: screening of fluorine-containing cargo solubilizing agents for GFP dispersion in perfluorocarbon. The following applies: for GFP dispersion efficiency: in PFH, after resuspension in aqueous buffer.
Method: For each condition, 200 ul of compounds+PFH was aliquoted into an Eppendorf tube containing individually dried GFP stocks (1 uM) for 9 replicates. Each tube was parafilmed, vortexed, placed on VWR tube rotator overnight at 4° C., and then centrifuged for 5 min at 4000 rpm. Next, 100 ul of each sample was aliquoted onto a black bottom 96-well plate for fluorescence scan from 500 to 560. The 96-well plate was then placed in 37° C. overnight to dry the PFH. The dry samples were resuspended in 100 ul PBS and scanned for fluorescence using BioTek Cytation 3 imaging reader. […] Here, PFH is used as a surrogate for the penultimate solvent perfluoro-n-pentane (PFP) used to form the peptisome core, as PFP has a low boiling point and low surface tension, making it difficult to use in these screening experiments.
Fluorine-containing cargo solubilizing agent #6 (perfluorononanoic acid, PNFA) was dissolved at various concentrations in PFH to achieve molar ratios with GFP at 400:1 to 50,000:1 fluorine-containing cargo solubilizing agent-to-GFP. For this molar ratio screening, PFNA was vortexed and sonicated to dissolve into PFH at 0.4, 2, 50, and 100 mM. For each condition, 200 ul of PFNA+PFH was aliquoted into an Eppendorf tube containing individually dried GFP (1 uM) for 9 replicates. Each tube was parafilmed, vortexed, placed on VWR tube rotator overnight at 4° C., and then centrifuged for 5 min at 4000 rpm. Next, 100 ul of each sample was aliquoted onto a black bottom 96-well plate for fluorescence scan from 500 to 560. The 96-well plate was then placed in 37° C. overnight to dry the PFH. The dry samples were resuspended in 100 ul PBS and scanned for fluorescence using BioTek Cytation 3 imaging reader.
For PFH and PFP solvent comparison, 2 mM PFNA was vortexed and sonicated to dissolve into either PFH or PFP on ice. For each condition, 200 ul of adjuvant/PFH or adjuvant/PFP was aliquoted into an Eppendorf tube containing individually dried GFP stocks (1 uM) for 3 replicates. Each tube was parafilmed, vortexed, placed on VWR tube rotator overnight at 4° C., and then centrifuged for 5 min at 4000 rpm. Next, 100 ul of each sample was aliquoted onto a black bottom 96-well plate for fluorescence scan from 500 to 560. The 96-well plate was then placed in 37° C. overnight to dry the PFH and PFP.
The next data set has as its target αVβ3 integrin (Homo sapiens, UniProt P05106+P06756). Particulars: read-out: binding affinity to αVβ3 integrin (IC50, conc. at which 50% of receptor is bound by ligand); cited from earlier work.

αVβ3 integrin, sequence (P06756 31-1048): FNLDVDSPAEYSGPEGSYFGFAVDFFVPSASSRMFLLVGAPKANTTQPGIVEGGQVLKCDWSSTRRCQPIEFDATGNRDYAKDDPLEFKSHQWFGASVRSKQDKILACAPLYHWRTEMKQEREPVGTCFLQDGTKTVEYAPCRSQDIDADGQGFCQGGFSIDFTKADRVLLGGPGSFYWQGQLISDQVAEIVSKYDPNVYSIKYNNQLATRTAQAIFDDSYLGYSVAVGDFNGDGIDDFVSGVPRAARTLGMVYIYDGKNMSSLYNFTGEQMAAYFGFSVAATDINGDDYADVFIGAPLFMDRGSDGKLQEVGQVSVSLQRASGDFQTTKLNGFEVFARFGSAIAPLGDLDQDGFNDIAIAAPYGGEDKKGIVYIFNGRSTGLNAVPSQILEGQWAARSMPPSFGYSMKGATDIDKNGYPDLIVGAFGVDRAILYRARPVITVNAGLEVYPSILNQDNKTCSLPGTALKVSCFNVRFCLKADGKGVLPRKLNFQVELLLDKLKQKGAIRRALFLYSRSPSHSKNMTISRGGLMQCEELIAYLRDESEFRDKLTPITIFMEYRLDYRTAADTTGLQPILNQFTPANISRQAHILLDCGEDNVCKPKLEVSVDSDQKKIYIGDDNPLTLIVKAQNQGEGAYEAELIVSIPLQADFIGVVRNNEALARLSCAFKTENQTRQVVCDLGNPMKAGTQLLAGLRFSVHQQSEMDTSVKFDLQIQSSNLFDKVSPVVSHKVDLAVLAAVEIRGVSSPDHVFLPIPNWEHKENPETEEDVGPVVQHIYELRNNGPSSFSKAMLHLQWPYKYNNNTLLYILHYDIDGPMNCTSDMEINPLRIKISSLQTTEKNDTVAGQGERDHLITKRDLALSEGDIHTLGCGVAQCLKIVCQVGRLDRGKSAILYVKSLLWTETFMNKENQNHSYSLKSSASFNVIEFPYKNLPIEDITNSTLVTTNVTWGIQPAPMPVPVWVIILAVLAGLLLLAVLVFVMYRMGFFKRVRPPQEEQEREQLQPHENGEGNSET
αVβ3 integrin, sequence (P05106 27-788): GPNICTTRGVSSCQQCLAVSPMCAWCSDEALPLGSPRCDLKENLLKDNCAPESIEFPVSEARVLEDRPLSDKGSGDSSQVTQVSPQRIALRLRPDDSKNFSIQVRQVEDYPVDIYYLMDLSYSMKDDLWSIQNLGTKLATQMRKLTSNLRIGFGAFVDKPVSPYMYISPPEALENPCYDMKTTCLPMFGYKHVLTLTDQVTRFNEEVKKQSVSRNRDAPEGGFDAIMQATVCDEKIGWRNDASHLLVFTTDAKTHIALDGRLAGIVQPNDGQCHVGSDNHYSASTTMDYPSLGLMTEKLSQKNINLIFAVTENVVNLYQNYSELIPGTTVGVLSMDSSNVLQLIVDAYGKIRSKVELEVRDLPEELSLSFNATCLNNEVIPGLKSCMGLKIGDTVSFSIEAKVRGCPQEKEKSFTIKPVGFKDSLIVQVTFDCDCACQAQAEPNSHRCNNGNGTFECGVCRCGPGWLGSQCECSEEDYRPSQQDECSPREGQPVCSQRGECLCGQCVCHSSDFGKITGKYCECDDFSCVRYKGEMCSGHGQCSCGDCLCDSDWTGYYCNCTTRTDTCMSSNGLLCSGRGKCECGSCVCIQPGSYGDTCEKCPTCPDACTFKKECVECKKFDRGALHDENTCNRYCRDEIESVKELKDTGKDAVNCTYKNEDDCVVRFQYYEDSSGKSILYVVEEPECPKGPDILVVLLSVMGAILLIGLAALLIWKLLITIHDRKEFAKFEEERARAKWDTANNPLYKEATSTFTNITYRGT

In data set [1], `FC(F)(F)C(F)(F)C(F)(F)C(F)(F)C(F)(F)C(F)(F)C(F)(F)C(F)(F)C(F)(F)C(F)(F)C(F)(F)C(F)(F)C(F)(F)C(F)(F)F` [Compound 2, perfluoroteradecane] registered a GFP dispersion efficiency of 5.1%.
For `O=C(O)C(F)(F)C(F)(F)C(F)(F)C(F)(F)F` [Compound 5, perfluoropentanoic acid], the GFP dispersion efficiency in data set [1] was 4.3%.
In the case of `O=C(O)C(F)(F)C(F)(F)C(F)(F)C(F)(F)C(F)(F)C(F)(F)C(F)(F)C(F)(F)F` [Compound 6, perfluorononanoic acid], in data set [1], the “protein dispersed within PFH compared to compound 5” value is “approximately 10 fold” and the GFP dispersion efficiency amounted to 39.3%. Also, in data set [1] (2000:1 molar ratio), the “protein dispersion with PFP compared to PFH” value is on record as “no significant difference”. In data set [1] (molar ratios of 2,000 to 10,000:1 agent-to-GFP), the “total GFP loading efficiency into PFH” value is on record as around 63%.
A word on the IC50: it is the midpoint of a concentration-inhibition curve. On to GRGD, for which the 50% inhibitory concentration (IC50) on αVβ3 integrin is 55 ± 7 nM.
For the molecule GRGDNP, the half-maximal inhibitory concentration (IC50) on αVβ3 integrin was 45 ± 12 nM.
Regarding GRGDS, the 50% inhibitory concentration (IC50) at αVβ3 integrin is 28 ± 3 nM.
With GRGDSPK, the IC50 on αVβ3 integrin was 12.2 ± 0.1 nM.
As to GRGDTP, the IC50 at αVβ3 integrin is 28 ± 5 nM.
Take RGD: at αVβ3 integrin, the concentration for half-maximal inhibition (IC50) is 89 ± 12 nM.
RGDS: the IC50 at αVβ3 integrin is 45 ± 5 nM.

Source of the values: patent US12064514B2, “Ultrasound-sensitive peptide particles for spatially resolved molecule delivery” (The Penn State Research Foundation, priority 2017, dated 2024).
